Laboratory results from the supplement of paper PMC11208160.

experiment: recombinant barcode read abundance after kanamycin selection (control-corrected) (log10(CPM+1)); higher = more efficient recombination; sequences stand for … in AGTGCAGAGAAAATCGGCCAGTTTTCTCTGCCTGCAGTCCGCATGCCGT…AGATTTATGCAGCGGACTGCCTTTCTCCCAAAGTGATAAACCGGACAGTATCATGGACCGGTTTTCCCGGTAATCCGTATTTGCAAGGTTGGTTTCACT; site = the 11-nt target
Outline: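 Pooled E. coli screen pairing targets with IS621 bridge RNA target-binding loops. Each oligo (promoter, target, barcode, J23119-driven first 104 bridge RNA bases) was Gibson-cloned into a vector with the remaining 73 bp and T7-inducible recombinase, then co-electroporated with a donor plasmid. Two replicates each were plated on chloramphenicol/ampicillin LB agar (control) or chloramphenicol/ampicillin/kanamycin with 0.1 mM IPTG. Recombination efficiency is recombinant-junction barcode counts as CPM, averaged, control-corrected, reported as log10(CPM+1).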
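Note: IS621 recombinase and bridge RNA in Escherichia coli cells.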

| Sequence | recombinant barcode read abundance (log10) |
| --- | --- |
| CTAGACACTTGGGTTCTAACCTGTTGCCT (site CTAGACACTAG) | 0.612 |
| CTAGACACTTGGGTTCTAACCTGTTGCCT (site CTCGACACTAG) | 0.0911 |
| CTAGACACTTGGGTTCTAACCTGTTGCCT (site CTGGACACTAG) | 0.0451 |
| CTAGACACTTGGGTTCTAACCTGTTGCCT (site CTTGACACTAG) | 0.512 |
| CTAGACCCTTGGGTTCTAACCTGTTGCGG (site ACGCGTTCTAT) | 0.25 |
| CTAGACCCTTGGGTTCTAACCTGTTGCGG (site CTAGACCCTCC) | 2.56 |
| CTAGACGCTTGGGTTCTAACCTGTTGCCT (site CAAGACGCTAG) | 1.41 |
| CTAGACGCTTGGGTTCTAACCTGTTGCCT (site CTAGACGCTAG) | 0.677 |
| CTAGACTCTTGGGTTCTAACCTGTTGCAT (site CTAGACTCTAT) | 2.88 |
| CTAGACTCTTGGGTTCTAACCTGTTGCAT (site CTAGACTCTCT) | 1.75 |
| CTAGACTCTTGGGTTCTAACCTGTTGCAT (site CTAGACTCTGT) | 0.161 |
| CTAGACTCTTGGGTTCTAACCTGTTGCAT (site CTAGACTCTTT) | 0.365 |
| CTAGCGACTTGGGTTCTAACCTGTTGCGG (site CTAACGACTCC) | 0.637 |
| CTAGCGACTTGGGTTCTAACCTGTTGCGG (site CTAGCGACTCC) | 1.85 |
| CTAGCGTCTTGGGTTCTAACCTGTTGCTT (site CTAGAGTCTAA) | 0.115 |
| CTAGCGTCTTGGGTTCTAACCTGTTGCTT (site CTAGCGTCTAA) | 0.776 |
| CTAGCTCCTTGGGTTCTAACCTGTTGCAG (site CTAGCGGCTCT) | 0.0535 |
| CTAGCTCCTTGGGTTCTAACCTGTTGCAG (site CTAGCTCCTCT) | 1.54 |
| CTAGGACCTTGGGTTCTAACCTGTTGCCA (site CTAGGACCTTG) | 1.27 |
| CTAGGACCTTGGGTTCTAACCTGTTGCCA (site CTAGGAGCTAG) | 0.233 |
| CTAGGAGCTTGGGTTCTAACCTGTTGCTT (site CTAGGAGCTAA) | 0.924 |
| CTAGGAGCTTGGGTTCTAACCTGTTGCTT (site CTAGGAGCTCA) | 0.211 |

| Sequence | recombinant barcode read abundance (log10) |
| --- | --- |
| CTAGGAGCTTGGGTTCTAACCTGTTGCTT (site CTAGGAGCTGA) | 0.0912 |
| CTAGGAGCTTGGGTTCTAACCTGTTGCTT (site CTAGGAGCTTA) | 0.0974 |
| CTAGGATCTTGGGTTCTAACCTGTTGCAT (site CTAGGATCTAT) | 2.45 |
| CTAGGATCTTGGGTTCTAACCTGTTGCAT (site CTAGGATCTTG) | 0.301 |
| CTAGGCTCTTGGGTTCTAACCTGTTGCGG (site CTACGCTCTTC) | 0.095 |
| CTAGGCTCTTGGGTTCTAACCTGTTGCGG (site CTAGGCTCTCC) | 2.32 |
| CTAGGTACTTGGGTTCTAACCTGTTGCTT (site ATAGGTACTAA) | 0.0337 |
| CTAGGTACTTGGGTTCTAACCTGTTGCTT (site CTAGGTACTAA) | 0.0303 |
| CTAGTAACTTGGGTTCTAACCTGTTGCCA (site ACGCGTGCTCC) | 0.0245 |
| CTAGTAACTTGGGTTCTAACCTGTTGCCA (site CTAGTAACTTG) | 0.351 |
| CTAGTTACTTGGGTTCTAACCTGTTGCCT (site CTAATTACTAG) | 0.0479 |
| CTAGTTACTTGGGTTCTAACCTGTTGCCT (site CTACTTACTAG) | 0.363 |
| CTAGTTACTTGGGTTCTAACCTGTTGCCT (site CTAGTTACTAG) | 1.11 |
| CTAGTTACTTGGGTTCTAACCTGTTGCCT (site CTATTTACTAG) | 0.177 |
| CTATCCTCTTGGGTTCTAACCTGTTGCAT (site CTAACCTCTAT) | 0.233 |
| CTATCCTCTTGGGTTCTAACCTGTTGCAT (site CTACCCTCTAT) | 1.01 |
| CTATCCTCTTGGGTTCTAACCTGTTGCAT (site CTAGCCTCTAT) | 0.537 |
| CTATCCTCTTGGGTTCTAACCTGTTGCAT (site CTATCCTCTAT) | 1.06 |
| CTATGACCTTGGGTTCTAACCTGTTGCTG (site CTATGACCTCA) | 1.91 |
| CTATGACCTTGGGTTCTAACCTGTTGCTG (site TCGGAGTCTGC) | 0.0682 |
| CTATGCCCTTGGGTTCTAACCTGTTGCGA (site CTATGCCCTTA) | 0.129 |
| CTATGCCCTTGGGTTCTAACCTGTTGCGA (site CTATGCCCTTC) | 2.02 |

| Sequence | recombinant barcode read abundance (log10) |
| --- | --- |
| CTATGGACTTGGGTTCTAACCTGTTGCAG (site CTATGGACTAT) | 0.391 |
| CTATGGACTTGGGTTCTAACCTGTTGCAG (site CTATGGACTCT) | 2.39 |
| CTATGGACTTGGGTTCTAACCTGTTGCAG (site CTATGGACTGT) | 0.348 |
| CTATGGACTTGGGTTCTAACCTGTTGCAG (site CTATGGACTTT) | 0.0535 |
| CTATGTGCTTGGGTTCTAACCTGTTGCCT (site CTATGTGCTAA) | 0.158 |
| CTATGTGCTTGGGTTCTAACCTGTTGCCT (site CTATGTGCTAC) | 0.298 |
| CTATGTGCTTGGGTTCTAACCTGTTGCCT (site CTATGTGCTAG) | 1.62 |
| CTATGTGCTTGGGTTCTAACCTGTTGCCT (site CTATGTGCTAT) | 0.305 |
| CTATGTGCTTGGGTTCTAACCTGTTGCGA (site CTATGTGCTTC) | 1.87 |
| CTATGTGCTTGGGTTCTAACCTGTTGCGA (site GTATGTGCTTT) | 0.139 |
| CTATGTGCTTGGGTTCTAACCTGTTGCGT (site CTATGTGCTAA) | 0.0372 |
| CTATGTGCTTGGGTTCTAACCTGTTGCGT (site CTATGTGCTAC) | 1.54 |
| CTATGTGCTTGGGTTCTAACCTGTTGCGT (site CTATGTGCTAG) | 0.0548 |
| CTATGTGCTTGGGTTCTAACCTGTTGCGT (site CTATGTGCTAT) | 0.298 |
| CTATTCCCTTGGGTTCTAACCTGTTGCCT (site CTATTCACTAG) | 0.1 |
| CTATTCCCTTGGGTTCTAACCTGTTGCCT (site CTATTCCCTAG) | 1.52 |
| CTATTCCCTTGGGTTCTAACCTGTTGCCT (site CTATTCGCTAG) | 0.286 |
| CTATTCCCTTGGGTTCTAACCTGTTGCCT (site CTATTCTCTAG) | 0.483 |
| CTATTGTCTTGGGTTCTAACCTGTTGCGG (site CTATTGTCTAC) | 0.714 |
| CTATTGTCTTGGGTTCTAACCTGTTGCGG (site CTATTGTCTCC) | 1.35 |
| CTATTGTCTTGGGTTCTAACCTGTTGCGG (site CTATTGTCTGC) | 0.249 |
| CTATTGTCTTGGGTTCTAACCTGTTGCGG (site CTATTGTCTTC) | 0.17 |

| Sequence | recombinant barcode read abundance (log10) |
| --- | --- |
| CTCAATACTTGGGTTCTAACCTGTTGCGA (site CTCAATACTTC) | 1.15 |
| CTCAATACTTGGGTTCTAACCTGTTGCGA (site CTCAATTCTTT) | 0.0435 |
| CTCAGACCTTGGGTTCTAACCTGTTGCTG (site CTCAGACCTCA) | 0.037 |
| CTCAGACCTTGGGTTCTAACCTGTTGCTG (site TCACACACTAG) | 0.463 |
| CTCATATCTTGGGTTCTAACCTGTTGCCA (site CTAATATCTTG) | 0.0804 |
| CTCATATCTTGGGTTCTAACCTGTTGCCA (site CTCATATCTTG) | 0.162 |
| CTCCAGACTTGGGTTCTAACCTGTTGCAG (site CTCCAGACTCT) | 1.87 |
| CTCCAGACTTGGGTTCTAACCTGTTGCAG (site CTGCAGACTCG) | 0.0775 |
| CTCCAGGCTTGGGTTCTAACCTGTTGCGG (site CTCAAGGCTAC) | 0.427 |
| CTCCAGGCTTGGGTTCTAACCTGTTGCGG (site CTCCAGGCTCC) | 1.55 |
| CTCCGAACTTGGGTTCTAACCTGTTGCTT (site CTCCGAACTAA) | 0.144 |
| CTCCGAACTTGGGTTCTAACCTGTTGCTT (site CTCCGTACTAT) | 0.0428 |
| CTCCGACCTTGGGTTCTAACCTGTTGCTT (site CTCCGACCTAA) | 1.67 |
| CTCCGACCTTGGGTTCTAACCTGTTGCTT (site CTCCGCCCTAA) | 0.0228 |
| CTCCGACCTTGGGTTCTAACCTGTTGCTT (site CTCCGGCCTAA) | 0.327 |
| CTCCGACCTTGGGTTCTAACCTGTTGCTT (site CTCCGTCCTAA) | 0.103 |
| CTCCGAGCTTGGGTTCTAACCTGTTGCTA (site CTCCGAGCTTA) | 0.0161 |
| CTCCGAGCTTGGGTTCTAACCTGTTGCTA (site CTCCTAGCTAA) | 0.00807 |
| CTCGACACTTGGGTTCTAACCTGTTGCTG (site CTCGACACTCA) | 1.6 |
| CTCGACACTTGGGTTCTAACCTGTTGCTG (site CTCTACACTCA) | 0.191 |
